Tests used:
[1] = tested on: human fibroblasts; test: Stimulation of the synthesis of dermal macromolecules (GAG) in collagen gel containing human fibroblasts; type: cell-based; conditions: 0.5% by weight FCS + 0.01% by weight substance; for Area 7 days / Area 14 days / Density 14 days: collagen gel; for Density 14 days: relative density 0=clear or white, 1=black; for GAG content 7 days / GAG content 14 days: relative value of the gray stage (0=white to 255=black), perifibroblast area
Method: The measuring method is based on staining macromolecules in a culture of human fibroblasts which, with type I collagen, forms a collagen gel or collagen lattice fibers. Certain regions of those fibers are quantified by means of staining reagents for the proportion of the mentioned macromolecules.
For that purpose, a suspension of human fibroblasts was mixed with a solution of type I collagen (1-2 mg/ml). This mixture was incubated in a defined nutrient medium (DMEM=Dulbecco minimum essential medium, Life Technologie Sarl) comprising 0.5 or 2% by weight fetal calf serum (FCS) for 14 days at 37° C. in a 5% CO2 atmosphere in Petri dishes (5 ml per dish) with the addition of different concentrations of the plant extracts to be tested.
The kinetics of the collagen gel […] was determined 2 to 3 times per week by measuring two perpendicular diameters on each collagen gel using a microscope with an image analysis system. The size of the area is shown in cm^2 in Table 8. After incubation for 14 days, the density of the collagen gel was determined by image analysis with a light source of visible light, by comparatively analyzing different gray stages. This is a relative determination of the density (0=clear or white and 1=black), which cannot be given a unit.
After an incubation period of 7 and 14 days, biopsies (tissue samples) were taken and histological sections of the collagen gel containing human fibroblasts were obtained. The synthesis of macromolecules was analyzed and quantified by the staining of glycosaminoglycan with PAS Alcian blue, for example from SIGMA, by the periodic acid-Schiff method (PAS) described in: Mowry R W, Anal. NY Adad. Sci. 106 Art 2, 402, 1963. The stimulation of the synthesis of macromolecules was evaluated in the immediate vicinity of fibroblasts. This zone is also referred to as the “perifibroblast area”.
The “perifibroblast” secretion, or the secretion of fibroblasts into the periphery, was quantified by an image analyzer by means of a microscope. Reactive structures in the “perifibroblast area” were detected, and the different gray stages were comparatively determined. The values of the gray stages were thereby subdivided from 0=white to 255=black. These parameters are directly proportional to the intensity of the synthesis of macromolecules and thus to the GAG content of the fibroblasts.
The results of the values of these parameters are shown in Table 3 below and are to be regarded directly as representative values for the synthesis activity of the fibroblasts. The content of GAGs is described as a relative value of the gray stage.

[2] = tested on: glucose-6-phosphate dehydrogenase (G6PDH); test: G6PDH activity on human fibroblasts (enzymatic method of Okada); type: cell-based; conditions: for G6PDH after 3 d / G6PDH after 6 d: conc. 0.001 % w/v, compared to blank sample = 100
Source text: The enzyme glucose-6-phosphate dehydrogenase (G6PDH) catalyzes the first step of the so-called “pentose pathway”, in which an important DNA component, namely deoxyribose, is formed. Glucose 6-phosphate (G6P) is thereby converted into 6-phosphogluconate (6PG) by means of G6PDH. At the same time, the coenzyme NADP required thereby is reduced to NADPH2, which in turn is able to catalyze a large number of other biological reactions such as, for example, the recycling of glutathione or lipid synthesis. Reduced glutathione protects many enzymes which have SH groups and cells against oxidative stress, such as, for example, the action of UV. The G6PDH content is thus an important parameter for cell protection and skin renewal. G6PDH activity was determined in vitro on human fibroblasts by the enzymatic method of Okada, while the DNA content was determined by the Desaulniers method. The results of 3 series of measurements with triple determination are given in %-rel. compared to a blank sample.

[3] = tested on: human fibroblasts and human keratinocytes; test: Inhibition of apoptosis induced by a deficiency of growth factors (cell count, BrdU ELISA of cytoplasmic DNA fragments); type: cell-based; conditions: for Content of DNA fragments / Cell count: conc. 0.001 % w/v; for Content of DNA fragments: BrdU in cytoplasmic DNA fragments, based on a million cells, control = 100; for Cell count: medium without fetal calf serum, in comparison to the control = 100
Method: The ability of carnosines to prevent apoptosis induced by a deficiency of growth factors in human skin cells was studied. These tests were carried out in vitro on human fibroblasts and human keratinocytes. The human cells were cultivated in a nutrient medium (DMEM=Dulbecco minimum essential medium from Life Technologie Sarl) with 10% fetal calf serum (from Dutcher). Bromodeoxyuridine (BrdU) was added to the nutrient medium; it was incorporated into the DNA and later served for detection of the DNA fragments in the cytoplasm. After an incubation period of two days, the nutrient medium was replaced by nutrient medium (DMEM) without fetal calf serum. The active substance to be tested was added. For comparison, a cell sample without active substance to be tested was incubated.
After a further incubation period of one or two days at 37° C., the cells were recovered by trypsinization according to the method of Dunnebacke and Zitcer described in: Cell and tissue culture, Ed.: J. Paul, Churchill Livingstone, 1975, p. 226. After the trypsinization, the cells were centrifuged and counted. Then the content of BrdU in the DNA fragments from the cytoplasm was determined by means of the ELISA test (ELISA kit from Roche). The content of BrdU is a measure of the DNA fragments which have passed from the nucleus, the cell core, into the cytoplasm. The results were based on a million cells and given in percent in comparison to the control.

[4] = target: pancreas elastase (Sus scrofa, UniProt P00772); test: Inhibition of elastase activity; type: biochemical; conditions: 0.3% by weight; 30 minutes at room temperature; relative to control = 0%
pancreas elastase, sequence (P00772 27-266): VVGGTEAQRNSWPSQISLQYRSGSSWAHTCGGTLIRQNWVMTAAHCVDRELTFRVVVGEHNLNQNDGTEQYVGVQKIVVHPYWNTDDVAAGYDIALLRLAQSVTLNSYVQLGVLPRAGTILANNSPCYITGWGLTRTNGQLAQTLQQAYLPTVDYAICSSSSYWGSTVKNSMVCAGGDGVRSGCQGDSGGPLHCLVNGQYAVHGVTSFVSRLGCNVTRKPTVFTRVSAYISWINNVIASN
Method: In order to determine the effectiveness of the plant extract in inhibiting the release of elastase, pancreas elastase (a serine protease) was studied and, as substrate, elastin was labeled with a chromogenic synthetic substrate. The system was incubated with the active ingredients for 30 minutes at room temperature and then, after centrifugation, the optical density of the dye at 410 nm was determined. The amount of extracts used was 0.3% by weight. The results are given relative to a control as standard (=0%); a1-antitrypsin was used as the standard.

[5] = tested on: human fibroblasts; test: DNA content of human fibroblasts (Desaulniers method); type: cell-based; conditions: conc. 0.001 % w/v, compared to blank sample = 100
Method: G6PDH activity was determined in vitro on human fibroblasts by the enzymatic method of Okada, while the DNA content was determined by the Desaulniers method. The results of 3 series of measurements with triple determination are given in %-rel. compared to a blank sample.

[6] = tested on: type I collagen; test: Inhibition of the glycation of collagen (Schiff's bases, fluorescence at 430 nm); type: biochemical; conditions: with glucose, 21 days at 45° C.; control with glucose 100, control without glucose 46
Method: The suspensions were then centrifuged and the content of Schiff's bases in the supernatant liquid was determined by fluorescence measurement at 430 nm. The results are again based on the control as standards (without extract and without glucose).

[7] = Membran & Cell Biol. 12(1), p. 89-99 (1998); cited from earlier work
[8] = Biochem. J. 264(3), p. 863-869 (1989); cited from earlier work

Structure (SMILES)	Area 7 days [1]	Area 14 days [1]	Density 14 days [1]	GAG content 7 days [1]	GAG content 14 days [1]	G6PDH after 3 d [2]	G6PDH after 6 d [2]	Content of DNA fragments [3]	Cell count [3]	Elastase inhibition [4]	DNA after 3 d [5]	DNA after 6 d [5]	Inhibition of the glycation of collagen [6]	capture of alpha-beta-unsaturated aldehydes [7]	G6PDH activity (in words) [2]	apoptosis and content of free DNA fragments in the cytoplasm (in words) ([3]; human cell cultures)	capture of ROS [8]
C[N+](C)(C)C[C@H](O)CC(=O)O.[Cl-] [Carnitine*HCl]	9.9 cm2	5.8 cm2	0.25	11.8	13.3	104 %-rel.	109 %-rel.	88%	118%	28%	106 %-rel.	118 %-rel.	65%				
NCCC(=O)N[C@@H](Cc1cnc[nH]1)C(=O)O [L-Carnosine]	10.1 cm2	6.0 cm2	0.25	12.1	15.1	105 %-rel.	109 %-rel.	85%	129%	32%	111 %-rel.	120 %-rel.	68%				
CCCCC(CC)COC(=O)C(C#N)=C(c1ccccc1)c1ccccc1 (centres unmarked) [Octocrinyl, reference compound]						89 %-rel.	85 %-rel.				95 %-rel.	90 %-rel.					
CCCCCCOC(=O)c1ccccc1C(=O)c1ccc(N(CC)CC)cc1O [Uvinul A, 2-(4-diethylamino-2-hydroxybenzoyl)-benzoic acid hexyl ester, reference compound]						88 %-rel.	81 %-rel.				97 %-rel.	93 %-rel.					
NCCC(=O)N[C@@H](Cc1cnc[nH]1)C(=O)O [carnosine]														able to capture alpha-beta-unsaturated aldehydes	increases the activity of G6PDH production	counteracts apoptosis	capable of capturing ROS
